From patent publication US9765105B2, “Macrolide compound” (Pulike Biological Engineering, Inc., priority 2013, dated 2017)

Assays:
Assay in all cases: in vitro susceptibility, MIC by mini broth dilution
Type in all cases: cell-based
[1] = tested on: Actinobacillus pleuropneumoniae CVCC262; conditions: strain CVCC262
Method in brief: (§1)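 MICs determined by mini broth dilution following NCCLS standards, using two-fold serial dilutions of compound in DMSO across 11 gradients, in duplicate rows. Strains were revived and subcultured at 35 °C for 20 h. Bacterial suspension was diluted 1:200 in liquid medium.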

[2] = tested on: Streptococcus equines CVCC556; conditions: strain CVCC556
Method in brief: as §1

[3] = tested on: Pasteurella multocida CVCC399; conditions: strain CVCC399
Method in brief: as §1

Haemophilus parasuis = tested on: Haemophilus parasuis
Method in brief: as §1

[4] = tested on: Staphylococcus aureus CVCC26003; conditions: strain CVCC26003
Method in brief: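 MICs were determined by mini broth dilution under NCCLS standards in CAMHB, using revived S. aureus CVCC26003 subcultured 20 h at 35° C. Compounds were two-fold serially diluted in DMSO across 11 wells, with duplicate rows. Bacterial suspension was diluted 1:200 in medium before inoculation.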

| Compound | MIC values, Actinobacillus pleuropneumoniae CVCC262 [1] [ug/mi] | MIC values, Streptococcus equines CVCC556 [2] [ug/mi] | MIC values, Pasteurella multocida CVCC399 [3] [ug/mi] | MIC values, Haemophilus parasuis (Haemophilus parasuis) [ug/mi] | MIC values, Staphylococcus aureus CVCC26003 [4] [ug/mi] |
| --- | --- | --- | --- | --- | --- |
| CCCN1C[C@H](C)[C@@H](O)[C@](C)(O)[C@@H](CC)OC(=O)[C@H](C)[C@@H](O[C@H]2C[C@@](C)(OC)[C@](O)(CN3CCCC3)[C@H](C)O2)[C@H](C)[C@@H](O[C@@H]2O[C@H](C)C[C@H](N(C)C)[C@H]2O)[C@](C)(O)C[C@H]1C [syzx-209] | 0.25 | 0.25 | 0.25 | 0.25 | 0.25 |
| CCCN1CC(C)C(O)C(C)(O)C(CC)OC(=O)C(C)C(OC2CC(C)(OC)C(O)(CNc3n[nH]c(S)n3)C(C)O2)C(C)C(OC2OC(C)CC(N(C)C)C2O)C(C)(O)CC1C (stereo not drawn) [syzx-210] | 0.5 | 0.25 | 4 | 0.5 | 2 |
| CCCN1C[C@H](C)[C@@H](O)[C@](C)(O)[C@@H](CC)OC(=O)[C@H](C)[C@@H](O[C@H]2C[C@@](C)(OC)[C@](O)(CNc3ccc(Cl)cn3)[C@H](C)O2)[C@H](C)[C@@H](O[C@@H]2O[C@H](C)C[C@H](N(C)C)[C@H]2O)[C@](C)(O)C[C@H]1C [syzx-211] | 4 | 0.5 | 8 | 4 | 2 |
| C=CCN(CC=C)C[C@]1(O)[C@H](C)O[C@@H](O[C@H]2[C@H](C)[C@@H](O[C@@H]3O[C@H](C)C[C@H](N(C)C)[C@H]3O)[C@](C)(O)C[C@@H](C)N(CCC)C[C@H](C)[C@@H](O)[C@](C)(O)[C@@H](CC)OC(=O)[C@@H]2C)C[C@@]1(C)OC [syzx-214] | 2 | 0.25 | 8 | 2 | 4 |
| CCCN1C[C@H](C)[C@@H](O)[C@](C)(O)[C@@H](CC)OC(=O)[C@H](C)[C@@H](O[C@H]2C[C@@](C)(OC)[C@](O)(CNC(=O)C(F)(F)F)[C@H](C)O2)[C@H](C)[C@@H](O[C@@H]2O[C@H](C)C[C@H](N(C)C)[C@H]2O)[C@](C)(O)C[C@H]1C [syzx-215] | 0.25 | 0.25 | 0.5 | 0.25 | 0.25 |
| CCCN1C[C@H](C)[C@@H](O)[C@](C)(O)[C@@H](CC)OC(=O)[C@H](C)[C@@H](O[C@H]2C[C@@](C)(OC)[C@](O)(CNC3CC3)[C@H](C)O2)[C@H](C)[C@@H](O[C@@H]2O[C@H](C)C[C@H](N(C)C)[C@H]2O)[C@](C)(O)C[C@H]1C [syzx-217] | 0.25 | 0.25 | 0.5 | 0.25 | 0.25 |
| CCCN1C[C@H](C)[C@@H](O)[C@](C)(O)[C@@H](CC)OC(=O)[C@H](C)[C@@H](O[C@H]2C[C@@](C)(OC)[C@](O)(CNc3cccnc3Cl)[C@H](C)O2)[C@H](C)[C@@H](O[C@@H]2O[C@H](C)C[C@H](N(C)C)[C@H]2O)[C@](C)(O)C[C@H]1C [syzx-218] | 4 | 0.25 | 8 | 4 | 2 |
| CCCN1C[C@H](C)[C@@H](O)[C@](C)(O)[C@@H](CC)OC(=O)[C@H](C)[C@@H](O[C@H]2C[C@@](C)(OC)[C@](O)(CNC(=O)c3ccccc3)[C@H](C)O2)[C@H](C)[C@@H](O[C@@H]2O[C@H](C)C[C@H](N(C)C)[C@H]2O)[C@](C)(O)C[C@H]1C [syzx-219] | 4 | 0.5 | 8 | 4 | 2 |
| CCCN1C[C@H](C)[C@@H](O)[C@](C)(O)[C@@H](CC)OC(=O)[C@H](C)[C@@H](O[C@H]2C[C@@](C)(OC)[C@](O)(CNc3nc(OC)cc(OC)n3)[C@H](C)O2)[C@H](C)[C@@H](O[C@@H]2O[C@H](C)C[C@H](N(C)C)[C@H]2O)[C@](C)(O)C[C@H]1C [syzx-222] | 2 | 0.25 | 8 | 2 | 4 |
| CCCN1C[C@H](C)[C@@H](O)[C@](C)(O)[C@@H](CC)OC(=O)[C@H](C)[C@@H](O[C@H]2C[C@@](C)(OC)[C@](O)(CNc3cccc(Br)c3)[C@H](C)O2)[C@H](C)[C@@H](O[C@@H]2O[C@H](C)C[C@H](N(C)C)[C@H]2O)[C@](C)(O)C[C@H]1C [syzx-223] | 0.25 | 0.25 | 0.5 | 0.25 | 0.25 |
| CCCN1C[C@H](C)[C@@H](O)[C@](C)(O)[C@@H](CC)OC(=O)[C@H](C)[C@@H](O[C@H]2C[C@@](C)(OC)[C@](O)(CNc3cc(F)ccc3[N+](=O)[O-])[C@H](C)O2)[C@H](C)[C@@H](O[C@@H]2O[C@H](C)C[C@H](N(C)C)[C@H]2O)[C@](C)(O)C[C@H]1C [syzx-226] | 4 | 0.25 | 8 | 4 | 2 |
| CCCN1C[C@H](C)[C@@H](O)[C@](C)(O)[C@@H](CC)OC(=O)[C@H](C)[C@@H](O[C@H]2C[C@@](C)(OC)[C@](O)(CNc3ccc(I)cc3)[C@H](C)O2)[C@H](C)[C@@H](O[C@@H]2O[C@H](C)C[C@H](N(C)C)[C@H]2O)[C@](C)(O)C[C@H]1C [syzx-227] | 4 | 0.5 | 8 | 4 | 2 |
| CCCN1C[C@H](C)[C@@H](O)[C@](C)(O)[C@@H](CC)OC(=O)[C@H](C)[C@@H](O[C@H]2C[C@@](C)(OC)[C@](O)(CNc3ccc([N+](=O)[O-])cc3[N+](=O)[O-])[C@H](C)O2)[C@H](C)[C@@H](O[C@@H]2O[C@H](C)C[C@H](N(C)C)[C@H]2O)[C@](C)(O)C[C@H]1C [syzx-228] | 1 | 0.25 | 2 | 1 | 2 |
| CCCN1C[C@H](C)[C@@H](O)[C@](C)(O)[C@@H](CC)OC(=O)[C@H](C)[C@@H](O[C@H]2C[C@@](C)(OC)[C@](O)(CNc3ccc(C)cc3C)[C@H](C)O2)[C@H](C)[C@@H](O[C@@H]2O[C@H](C)C[C@H](N(C)C)[C@H]2O)[C@](C)(O)C[C@H]1C [syzx-229] | 4 | 0.25 | 16 | 4 | 4 |
| CCCN1C[C@H](C)[C@@H](O)[C@](C)(O)[C@@H](CC)OC(=O)[C@H](C)[C@@H](O[C@H]2C[C@@](C)(OC)[C@](O)(CNc3cc(C(F)(F)F)cc(C(F)(F)F)c3)[C@H](C)O2)[C@H](C)[C@@H](O[C@@H]2O[C@H](C)C[C@H](N(C)C)[C@H]2O)[C@](C)(O)C[C@H]1C [syzx-230] | 2 | 0.25 | 8 | 2 | 4 |
| CCCN1C[C@H](C)[C@@H](O)[C@](C)(O)[C@@H](CC)OC(=O)[C@H](C)[C@@H](O[C@H]2C[C@@](C)(OC)[C@](O)(CNc3ccc(Cl)cc3Cl)[C@H](C)O2)[C@H](C)[C@@H](O[C@@H]2O[C@H](C)C[C@H](N(C)C)[C@H]2O)[C@](C)(O)C[C@H]1C [syzx-231] | 0.25 | 0.25 | 0.5 | 0.25 | 0.25 |
| CCCN1C[C@H](C)[C@@H](O)[C@](C)(O)[C@@H](CC)OC(=O)[C@H](C)[C@@H](O[C@H]2C[C@@](C)(OC)[C@](O)(CNc3cc(Cl)ccc3C)[C@H](C)O2)[C@H](C)[C@@H](O[C@@H]2O[C@H](C)C[C@H](N(C)C)[C@H]2O)[C@](C)(O)C[C@H]1C [syzx-234] | 4 | 0.25 | 8 | 4 | 2 |
| CCCN1C[C@H](C)[C@@H](O)[C@](C)(O)[C@@H](CC)OC(=O)[C@H](C)[C@@H](O[C@H]2C[C@@](C)(OC)[C@](O)(CNc3cc(Cl)nc(Cl)n3)[C@H](C)O2)[C@H](C)[C@@H](O[C@@H]2O[C@H](C)C[C@H](N(C)C)[C@H]2O)[C@](C)(O)C[C@H]1C [syzx-237] | 4 | 0.25 | 8 | 4 | 2 |
